Measurements: patent publication US20200085839A1, “COMBINATION OF IMMUNOTHERAPEUTICS AND BISFLUOROALKYL-1,4-BENZODIAZEPINONE COMPOUNDS FOR TREATING LYMPHOMAS” (Ayala Pharmaceuticals Inc., priority 2018, published 2020)
Read-outs that look alike come from different tables or passages of the source.

Assays:
Assay in all cases: Cell surface BCMA by FACS
Format in all cases: cell-based, human
[1] = tested on: NU-DUL-1 cells (B-cell Lymphoma); conditions: for EC50: Homo sapiens
Method: (§1) […] cell lines, comprising 9 subtypes of lymphomas (see Table 1), were seeded at 1×10^5 cells/well in a total volume of 250 μl into a 96-well plate. The cells were cultured in RPMI medium supplemented with 10% FCS. Compound (22) was added to the cell cultures at a concentration of 10 μM, 1 μM, 100 nM, 10 nM, 1 nM, 100 pM, 10 pM, 1 pM, and 100 fM, and cell lines (8 from Hadassah Medical Center, 31 from Eurofins) were incubated at 37° C. for 24 hours with Compound (22). Following incubation, the cells were collected and BCMA levels were evaluated on the cell surface for cell-bound BCMA. Cells were stained with an anti-BCMA antibody (PE anti-human 19F2 BCMA, Biolegend), and cell surface BCMA levels were determined by FACS analysis (Mean Fluorescence Intensity. Soluble BCMA levels were analyzed by ELISA (Human BCMA/TNFRSF17 DuoSet kit: R&D Systems).

[2] = tested on: BC-1 cells (B-cell Lymphoma); conditions: for EC50: Homo sapiens
Method: as §1

[3] = tested on: GA-10 cells (Burkitt's Lymphoma); conditions: for EC50: Homo sapiens
Method: as §1

[4] = tested on: Daudi cells (Burkitt's Lymphoma); conditions: for EC50: Homo sapiens
Method: as §1

[5] = tested on: JVM-2 cells (Mantle Cell Lymphoma); conditions: for EC50: Homo sapiens
Method: as §1

[6] = tested on: MHHH-PREB-1 cells (B-cell Lymphoma); conditions: for EC50: Homo sapiens, B-cell
Method: as §1

[7] = tested on: H9 cells (Cutaneous T-cell Lymphoma); conditions: for EC50: Homo sapiens
Method: as §1

[8] = tested on: Raji cells (Burkitt's Lymphoma); conditions: for EC50: Homo sapiens
Method: as §1

ST486 cells (DLBCL) = conditions: for EC50: Homo sapiens
Method: as §1

HT cells (DLBCL) = conditions: for EC50: Homo sapiens
Method: as §1

[9] = tested on: Jiyoye cells (Burkitt's Lymphoma); conditions: for EC50: Homo sapiens
Method: as §1

[10] = tested on: TUR cells (Histiocytic Lymphoma); conditions: for EC50: Homo sapiens
Method: as §1

[11] = tested on: EB-3 cells (Burkitt's Lymphoma); conditions: for EC50: Homo sapiens
Method: as §1

[12] = tested on: CA46 cells (Burkitt's Lymphoma); conditions: for EC50: Homo sapiens
Method: as §1

SUDHL-8 cells (DLBCL) = conditions: for EC50: Homo sapiens
Method: as §1

[13] = tested on: L-248 cells (Hodgkin's Lymphoma); conditions: for EC50: Homo sapiens
Method: as §1

[14] = tested on: SUDHL-4 (Eurofins) cells (DLBCL); printed SUDHL in Table 1; conditions: for EC50: Homo sapiens, SU-DHL-4
Method: as §1

[15] = tested on: REC-1 cells (Mantle Cell Lymphoma); conditions: for EC50: Homo sapiens
Method: as §1

[16] = tested on: RPMI-6666 cells (Hodgkin's Lymphoma); conditions: for EC50: Homo sapiens
Method: as §1

[17] = 24 h, read-out: BCMA (Mean Fluorescence Intensity) EC50

Cc1cccc2c1NC(=O)[C@@H](NC(=O)[C@H](CCC(F)(F)F)[C@H](CCC(F)(F)F)C(N)=O)N=C2c1cccc(F)c1 [Compound (22), (2R,3S)—N-((3S)-5-(3-fluorophenyl)-9-methyl-2-oxo-2,3-dihydro-1H-1,4-benzodiazepin-3-yl)-2,3-bis(3,3,3-trifluoropropyl)succinamide]
mBCMA (MFI) Fold Increase [1]: 7.0 fold
BCMA (Mean Fluorescence Intensity) 1 nM Compound (22) ([1]; 1 nM, 24 h): 3892
BCMA (Mean Fluorescence Intensity) 100 nM Compound (22) ([1]; 100 nM, 24 h): 4665
EC50 [1, 17]: 0.61 nM
EC50 ([1]; read-out: mBCMA (MFI) EC50): 0.61 nM
mBCMA (MFI) Fold Increase [2]: 5.9 fold
BCMA (Mean Fluorescence Intensity) 1 nM Compound (22) ([2]; 1 nM, 24 h): 676
BCMA (Mean Fluorescence Intensity) 100 nM Compound (22) ([2]; 100 nM, 24 h): 3694
EC50 ([2]; BC1, 24 h, read-out: BCMA (Mean Fluorescence Intensity) EC50): 30.6 nM
EC50 ([2]; BC1, read-out: mBCMA (MFI) EC50): 30.6 nM
mBCMA (MFI) Fold Increase [3]: 5.6 fold
BCMA (Mean Fluorescence Intensity) 1 nM Compound (22) ([3]; 1 nM, 24 h): 41993
BCMA (Mean Fluorescence Intensity) 100 nM Compound (22) ([3]; 100 nM, 24 h): 51080
EC50 [3, 17]: 0.56 nM
EC50 ([3]; read-out: mBCMA (MFI) EC50): 0.56 nM
mBCMA (MFI) Fold Increase [4]: 4.2 fold
BCMA (Mean Fluorescence Intensity) 1 nM Compound (22) ([4]; 1 nM, 24 h): 1421
BCMA (Mean Fluorescence Intensity) 100 nM Compound (22) ([4]; 100 nM, 24 h): 2242
cell-bound BCMA ([4]; FIG. 7A): increased cell-bound BCMA
EC50 [4, 17]: 4.9 nM
EC50 ([4]; read-out: mBCMA (MFI) EC50): 4.9 nM
mBCMA (MFI) Fold Increase [5]: 7.0 fold
BCMA (Mean Fluorescence Intensity) 1 nM Compound (22) ([5]; 1 nM, 24 h): 4437
BCMA (Mean Fluorescence Intensity) 100 nM Compound (22) ([5]; 100 nM, 24 h): 21757
EC50 [5, 17]: 3.1 nM
EC50 ([5]; read-out: mBCMA (MFI) EC50): 3.1 nM
mBCMA (MFI) Fold Increase [6]: 4.5 fold
BCMA (Mean Fluorescence Intensity) 1 nM Compound (22) ([6]; 1 nM, 24 h): 1363
BCMA (Mean Fluorescence Intensity) 100 nM Compound (22) ([6]; 100 nM, 24 h): 1830
EC50 [6, 17]: 1.7 nM
EC50 ([6]; read-out: mBCMA (MFI) EC50): 1.7 nM
mBCMA (MFI) Fold Increase [7]: 1.1 fold
BCMA (Mean Fluorescence Intensity) 1 nM Compound (22) ([7]; 1 nM, 24 h): 811
BCMA (Mean Fluorescence Intensity) 100 nM Compound (22) ([7]; 100 nM, 24 h): 900
EC50 [7, 17]: > 10000 nM
EC50 ([7]; read-out: mBCMA (MFI) EC50): > 10000 nM
mBCMA (MFI) Fold Increase [8]: 2.2 fold
BCMA (Mean Fluorescence Intensity) 1 nM Compound (22) ([8]; 1 nM, 24 h): 521
BCMA (Mean Fluorescence Intensity) 100 nM Compound (22) ([8]; 100 nM, 24 h): 650
EC50 [8, 17]: 1.1 nM
EC50 ([8]; read-out: mBCMA (MFI) EC50): 1.1 nM
mBCMA (MFI) Fold Increase (ST486 cells (DLBCL)): 4.5 fold
BCMA (Mean Fluorescence Intensity) 1 nM Compound (22) (ST486 cells (DLBCL); 1 nM, 24 h): 10564
BCMA (Mean Fluorescence Intensity) 100 nM Compound (22) (ST486 cells (DLBCL); 100 nM, 24 h): 13410
EC50 (ST486 cells (DLBCL); [17]): 0.58 nM
EC50 (ST486 cells (DLBCL); read-out: mBCMA (MFI) EC50): 0.58 nM
mBCMA (MFI) Fold Increase (HT cells (DLBCL)): 3.2 fold
BCMA (Mean Fluorescence Intensity) 1 nM Compound (22) (HT cells (DLBCL); 1 nM, 24 h): 488
BCMA (Mean Fluorescence Intensity) 100 nM Compound (22) (HT cells (DLBCL); 100 nM, 24 h): 895
EC50 (HT cells (DLBCL); [17]): 2.3 nM
EC50 (HT cells (DLBCL); read-out: mBCMA (MFI) EC50): 2.3 nM
EC50 ([9]; JIYOYE, read-out: mBCMA (MFI) EC50): 7.6 nM
EC50 ([9]; Jiyoye, 24 h, read-out: BCMA (Mean Fluorescence Intensity) EC50): 7.6 nM
mBCMA (MFI) Fold Increase ([9]; Jiyoye): 4.2 fold
BCMA (Mean Fluorescence Intensity) 1 nM Compound (22) ([9]; Jiyoye, 1 nM, 24 h): 1864
BCMA (Mean Fluorescence Intensity) 100 nM Compound (22) ([9]; Jiyoye, 100 nM, 24 h): 2616
cell-bound BCMA ([9]; Jiyoye, FIG. 8A): increased cell-bound BCMA
mBCMA (MFI) Fold Increase [10]: 1.0 fold
BCMA (Mean Fluorescence Intensity) 1 nM Compound (22) ([10]; 1 nM, 24 h): 464
BCMA (Mean Fluorescence Intensity) 100 nM Compound (22) ([10]; 100 nM, 24 h): 462
EC50 [10, 17]: > 10000 nM
EC50 ([10]; read-out: mBCMA (MFI) EC50): > 10000 nM
mBCMA (MFI) Fold Increase [11]: 0.5 fold
BCMA (Mean Fluorescence Intensity) 1 nM Compound (22) ([11]; 1 nM, 24 h): 549
BCMA (Mean Fluorescence Intensity) 100 nM Compound (22) ([11]; 100 nM, 24 h): 449
EC50 [11, 17]: > 10000 nM
EC50 ([11]; read-out: mBCMA (MFI) EC50): > 10000 nM
mBCMA (MFI) Fold Increase [12]: 5.5 fold
BCMA (Mean Fluorescence Intensity) 1 nM Compound (22) ([12]; 1 nM, 24 h): 6424
BCMA (Mean Fluorescence Intensity) 100 nM Compound (22) ([12]; 100 nM, 24 h): 13506
EC50 [12, 17]: 2.3 nM
EC50 ([12]; read-out: mBCMA (MFI) EC50): 2.3 nM
mBCMA (MFI) Fold Increase (SUDHL-8 cells (DLBCL)): 1.7 fold
BCMA (Mean Fluorescence Intensity) 1 nM Compound (22) (SUDHL-8 cells (DLBCL); 1 nM, 24 h): 350
BCMA (Mean Fluorescence Intensity) 100 nM Compound (22) (SUDHL-8 cells (DLBCL); 100 nM, 24 h): 414
EC50 (SUDHL-8 cells (DLBCL); SU-DHL-8, 24 h, read-out: BCMA (Mean Fluorescence Intensity) EC50): > 10000 nM
EC50 (SUDHL-8 cells (DLBCL); SU-DHL-8, read-out: mBCMA (MFI) EC50): > 10000 nM
mBCMA (MFI) Fold Increase [13]: 1.0 fold
BCMA (Mean Fluorescence Intensity) 1 nM Compound (22) ([13]; 1 nM, 24 h): 440
BCMA (Mean Fluorescence Intensity) 100 nM Compound (22) ([13]; 100 nM, 24 h): 445
EC50 [13, 17]: > 10000 nM
EC50 ([13]; read-out: mBCMA (MFI) EC50): > 10000 nM
EC50 ([14]; SUDHL-4 (Eurofins), read-out: mBCMA (MFI) EC50): 1.6 nM
EC50 ([14]; SUDHL, 24 h, read-out: BCMA (Mean Fluorescence Intensity) EC50): 1.6 nM
mBCMA (MFI) Fold Increase ([14]; SUDHL-4 (Eurofins)): 9.1 fold
BCMA (Mean Fluorescence Intensity) 1 nM Compound (22) ([14]; SUDHL, 1 nM, 24 h): 7568
BCMA (Mean Fluorescence Intensity) 100 nM Compound (22) ([14]; SUDHL, 100 nM, 24 h): 20540
mBCMA (MFI) Fold Increase [15]: 1.0 fold
BCMA (Mean Fluorescence Intensity) 1 nM Compound (22) ([15]; 1 nM, 24 h): 217
BCMA (Mean Fluorescence Intensity) 100 nM Compound (22) ([15]; 100 nM, 24 h): 243
EC50 ([15]; Rec1, 24 h, read-out: BCMA (Mean Fluorescence Intensity) EC50): > 10000 nM
EC50 ([15]; Rec1, read-out: mBCMA (MFI) EC50): > 10000 nM
mBCMA (MFI) Fold Increase [16]: 6.6 fold
BCMA (Mean Fluorescence Intensity) 1 nM Compound (22) ([16]; 1 nM, 24 h): 971.5
BCMA (Mean Fluorescence Intensity) 100 nM Compound (22) ([16]; 100 nM, 24 h): 3287.5
EC50 [16, 17]: 7 nM
EC50 ([16]; read-out: mBCMA (MFI) EC50): 7 nM
